Several values for one entry are separate records, joined by “and”; a condition that tells them apart may be missing. Equal values may be shown once.
Assays:
[1] = parameters: method as in PMID 34084146; settings: cited from earlier work
[2] = In vitro dissolution profile (apparatus type II, HPMC capsules) and release kinetics fitting; assay type: physicochemical; settings: 37 °C, 100 rpm, 5 mg apigenin in HPMC capsule
Method: The apigenin-loaded SNEDDS formulations GTP2575 and GTP3070 were selected for evaluating the in vitro dissolution because both formulations offered nearly 100% transmittance, an appropriate size with a narrow size distribution, a quick self-emulsification time, and great drug loading and encapsulation efficiency. […] Therefore, formulations GTP2575 and GTP3070 were preferred for in vitro dissolution study.
Dissolution was performed by a dissolution apparatus type II (a paddle) (Vision G2 Elite 8, Hanson, CA, USA). The SNEDDS formulations GTP2575 and GTP3070 containing 5 mg of apigenin were added to HPMC capsules number 00. An equivalent 5 mg of apigenin coarse powder added to HPMC capsules using lactose monohydrate as the filler was the control. Each capsule was placed inside a sinker loaded with 900 mL of dissolution media (buffer solutions pH 1.2, 4.5, and 6.8) at 37.0 ± 0.5 °C with a rotating speed of 100 rpm. During the study, 5 mL of dissolution medium was removed at predetermined time intervals (10, 15, 20, 30, 45, 60, 90, and 120 min), and 5 mL of fresh buffer solution was replaced. The amount of apigenin dissolved in the dissolution media was determined by HPLC. The dissolution experiment was carried out in triplicate. The dissolution profile was plotted with the percent apigenin dissolved on the y-axis and time on the x-axis. The dissolution profiles of GTP2575, GTP3070, and the coarse powder in the dissolution media buffer pH 1.2, 4.5, and 6.8 were compared. The dissolution results of the SNEDDS formulations GTP2575 and GTP3070 in pH 1.2 buffer solution were fitted by determining the R^2 with various kinetic models such as zero-order (a constant release rate independent of the drug remaining), first-order (an exponential decay of the drug remaining), Higuchi (matrix systems where drug release is controlled by diffusion), Hixon–Crowell (release based on the change in the cube root of the drug remaining), and Korsmeyer–Peppas (an extension of the […] model that incorporates a release exponent). […]

[3] = Solubility of apigenin in oils, surfactants and cosurfactants (excess drug, shaking water bath, HPLC); assay type: physicochemical; settings: 48 h, mean ± SD, n = 3
Description: To formulate the SNEDDS, the selection of suitable oils, surfactants, and cosurfactants is important to enhance the solubility of actives and the loading efficiency. The components used in SNEDDS should maximize drug solubility and have good miscibility with each other to obtain a stable formulation. Therefore, the solubility of apigenin was firstly determined in the oils (Gelucire 44/14, Myritol 318, sunflower oil, and corn oil), surfactants (PEG-40 hydrogenated castor oil, Tween 20, Tween 80, Span 20, and Span 80), and cosurfactants (PEG 400 and Transcutol HP). Briefly, an excess amount of apigenin was weighed into 0.5 g of each excipient. The obtained mixtures were mixed using a vortex mixer and kept in a shaking water bath at 100 rpm and 37 ± 2 °C for 48 h. After equilibrium was achieved, the equilibrated sample was centrifuged at 8000 rpm for 20 min. The excess undissolved apigenin was discarded, and the supernatant was collected. The concentration of apigenin was analyzed by the high-performance liquid chromatography (HPLC). The experiments were performed in triplicate. The excipient in which apigenin was the most soluble was selected to form the pseudoternary phase diagram. The amount of apigenin was quantified by a validated reversed-phase HPLC (RP-HPLC) equipped with a UV/VIS detector (SHIMADZU Series 20AD, Japan). Apigenin was separated on a C18 column (Promosil C18, 4.5 × 250 mm, 5 µm) using methanol, acetonitrile, acetic acid, orthophosphoric acid, and water at a ratio of 40:20:0.05:0.05:40 by volume as the mobile phase at a flow rate of 0.6 mL/min with a detection wavelength of 352 nm. The column temperature was set to 30 °C. The standard curve of apigenin was linear in the concentration range of 0.05–40 µg/mL. Good linearity with a coefficient of determination (R^2) > 0.999 was achieved. The relative standard deviation (%RSD) of intraday and interday precision of the assay method for apigenin was below 6%, and the accuracy was within the range of 95–105%. The limit of quantification and limit of detection were 0.64 and 0.21 µg/mL, respectively.

Caco-2 cells = experiment: Intracellular (cellular) antioxidant activity (CAA) assay, DCFH-DA/AAPH; assay type: cell-based; settings: apigenin 7 μg/mL final, ascorbic acid 0.01%w/v, mean ± SD; for AUC (area under the DCF fluorescence response curve over time): 1 h incubation, 600 µM AAPH; for CAA unit (%reduction): vs non-antioxidant treated control
Description: The quantitative cellular antioxidant activity (CAA) assay is a useful method employed for determining the bioavailability of food antioxidants because it can account for several additional factors, such as cellular uptake and metabolism. The CAA assay uses a fluorescent probe (DCFH-DA) to monitor the inhibition of peroxyl radical-induced oxidation inside the cell. The ester form (DCFH-DA) is nonionic and nonpolar and can be transported across the cell membrane. Inside the cell, DCFH-DA is deacetylated by endogenous cellular esterase and left in its oxidizable DCFH form. Once the free radical generator AAPH is added to the system, peroxyl radicals begin to form. The addition of antioxidants that can enter the cell can compete with and quench the radicals, preventing DCFH from being oxidized to form DCF (fluorescent). The CAA unit takes into account the relative areas under the curves of the samples compared to the control. Caco-2 cells, intestinal barrier models, are an appropriate model for assessing the antioxidant activity, especially for the phenolic compound[21] being used in this study.
The quantitative CAA of SNEDDS formulations GTP2575 and GTP3070 was evaluated in Caco-2 cells modified from the study of Kellett et al.[21]. Caco-2 cells were cultured in advanced DMEM supplemented with 10% endotoxin-free, heat-inactivated FBS, 1% L-glutamine, 1% penicillin (10,000 U/mL), and 1% streptomycin (10,000 μg/mL). Each test sample of SNEDDS was prepared by diluting with serum-free culture media to obtain an equivalent concentration of apigenin (14 µg/mL). The working solution (25 μM DCFH-DA in serum-free culture media) was prepared from a 12.5 mM DCFH-DA stock solution in MeOH. A 600 μM AAPH solution was prepared from a 60 mM AAPH stock solution in HBSS before experimental use. After Caco-2 cells reached confluence in a T-25 culture flask, the cells were washed twice with sterile PBS (pH 7.4) and dissociated from the surface using trypsin–EDTA. The cells were seeded in 96-well, black, flat-bottom tissue culture-treated dishes (Corning Costar, ME, USA). A density of 60,000 cells in 100 µL of culture media was added to each well and incubated until they reached confluency (24 h). The growth medium was removed after confluence was achieved, and the cells were then washed with PBS to remove any nonadherent and dead cells.
At the time of the experiment, 50 µL of 25 μM DCFH-DA working solution was added to each well, followed by 50 µL of a test sample. As a result, the final concentration of apigenin of 7 μg/mL in each well was obtained. As a control, 50 µL of DCFH-DA working solution and serum-free culture media (no sample included) were utilized. Once the DCFH-DA and test samples were added, the cells were placed in the incubator for 1 h at 37 °C. After 1 h, the cells were washed with PBS 3 times to ensure that any antioxidant effect observed later in the assay was due only to the compounds internalized by the cells. […] The cells were then immediately placed in a BMG CLARIOstar (BMG LABTECH, NC, USA), where real-time fluorescence was measured initially and every five minutes for 1 h (a total of 13 readings were taken). The fluorescence was measured at an excitation wavelength of 485 nm and an emission wavelength of 538 nm. The antioxidant activity of test samples was quantified by evaluating the percent reduction in fluorescence. […] The percent reduction, or the CAA unit, was calculated using Eq. (3). The samples were evaluated in triplicate and reported as the mean ± SD. […]

| SMILES | Biopharmaceutical classification system (BCS) class [1] | Solubility in water [1] | percent apigenin dissolved at 120 min ([2]; buffer pH 1.2, 900 mL) | percent apigenin dissolved at 120 min ([2]; buffer pH 4.5, 900 mL) | percent apigenin dissolved at 120 min ([2]; buffer pH 6.8, 900 mL) | Solubility at 37 °C ([3]; in Gelucire 44/14 (oil)) | Solubility at 37 °C ([3]; in Myritol 318 (oil)) | Solubility at 37 °C ([3]; in PEG 400 (cosurfactant)) | Solubility at 37 °C ([3]; in PEG-40 hydrogenated castor oil (surfactant)) | Solubility at 37 °C ([3]; in Span 20 (surfactant)) | Solubility at 37 °C ([3]; in Span 80 (surfactant)) | Solubility at 37 °C ([3]; in Transcutol HP (cosurfactant)) | Solubility at 37 °C ([3]; in Tween 20 (surfactant)) | Solubility at 37 °C ([3]; in Tween 80 (surfactant)) | Solubility at 37 °C ([3]; in corn oil) | Solubility at 37 °C ([3]; in sunflower oil) | AUC (area under the DCF fluorescence response curve over time) (Caco-2 cells; n = 3) | CAA unit (%reduction) (Caco-2 cells; n = 3, listed as Apigenin coarse powder) | CAA unit (%reduction) (Caco-2 cells; n = 3, listed as apigenin coarse powder) | CAA unit (%reduction) (Caco-2 cells; n = 3) |
| --- | --- | --- | --- | --- | --- | --- | --- | --- | --- | --- | --- | --- | --- | --- | --- | --- | --- | --- | --- | --- |
| O=c1cc(-c2ccc(O)cc2)oc2cc(O)cc(O)c12 [apigenin] | Class II | insoluble | 5% | 2% | 2% | 7.77 ± 0.63 mg/g and 7.7686 ± 0.6332 mg/g | 0.0003 ± 0.0000 mg/g | 27.6349 ± 0.9833 mg/g | 11.3645 ± 0.2659 mg/g | 0.0013 ± 0.0000 mg/g | 0.0007 ± 0.0001 mg/g | 20.9544 ± 0.8715 mg/g | 20.9996 ± 1.1273 mg/g | 22.5921 ± 0.0290 mg/g | 0.0003 ± 0.0000 mg/g | 0.0004 ± 0.0000 mg/g | 9,951,772 ± 1,061,408 | 12.70 ± 5.14 % | 12.70% and 12.70 ± 5.14% | – |
| O=C1O[C@H]([C@@H](O)CO)C(O)=C1O [ascorbic acid] | – | – | – | – | – | – | – | – | – | – | – | – | – | – | – | – | 8,959,896 ± 1,441,639 | – | – | 21.61 ± 7.41% |
